The values that follow come from paper PMC8151276, “An Integrated Approach toward NanoBRET Tracers for Analysis of GPCR Ligand Engagement” (Molecules, 2021).

What all share (type): binding
For one assay, the target named is T1, FZD8 (Homo sapiens, UniProt Q9H461).
T1 construct: purchased Promega (in-house HiBiT-GPCR construct library, NanoBRET)
Briefly: NanoBRET screen HiBiT-FZD8 in HEK293. The method, then: (§1) Each tracer candidate was screened across the entire library of HiBiT-GPCR constructs using NanoBRET as the detection modality. As depicted in Figure 4A, the specificity of interactions was evaluated through decrease in BRET due to competitive displacement of a bound tracer by excess parental compound. Each tracer was analyzed for binding to each HiBiT-GPCR fusion in the absence and in the presence of competing parental compound. Briefly, HEK293 cells were transfected with HiBiT-GPCR constructs diluted into promoterless DNA to reduce expression and maximize translocation to the cell surface. Each tracer candidate was then screened at concentrations of 1 μM and 0.1 μM across cells expressing these fusions. Cells were treated for 1.5 h with tracer either alone or in the presence of 20 μM competing parental compound (i.e., control). BRET was measured upon addition of purified LgBiT and subsequent complementation with HiBiT genetically fused to a GPCR. The specificity of interactions was assessed through a decrease in BRET signal due to competitive displacement of the bound tracer. To further gauge the robustness of these interactions, the fold response over the control (i.e., BRETtracer/BRETcontrol) was calculated. We chose a 1.5-fold response, which translates to ≥7-fold signal over noise as the minimal threshold required to score an interaction as positive. […]. Below we highlight the screening results obtained for our exemplary fluorescent tracers based on Clozapine, Amitriptyline and AZD1283.
(§2) HiBiT-GPCR DNA constructs were diluted in 10 mM Tris pH 8 to a final concentration of 0.01 μg/μL, arrayed in 96-well plates and stored at −20 °C. For transfection, HEK293 cells were suspended in Opti-MEM (without phenol red) supplemented with 2% fetal bovine serum (Seradigm) and 100 units/mL penicillin–streptomycin (Gibco) at a final concentration of 220,000 cells/mL and dispensed into white 96-well plates at 90 μL/well. Subsequent transfections and screens were carried using an Agilent Bravo Automated Liquid Handling Platform. First, the 96-well HiBiT DNA arrays were diluted 25-fold in Opti-MEM (without serum or phenol red) to a final concentration of 0.0004 μg/μL and 20 μL of the diluted DNAs were transferred into new 96-well plates. Next, promoterless carrier DNA (1 μg/μL) was diluted 25-fold (0.04 μg/μL) and then dispensed into the diluted arrays at 20 μL/well. Following brief mixing, Viafect transfection reagent (Promega) diluted 16-fold into Opti-MEM was dispensed into the plates at 40 μL/well. After mixing by pipetting, plates were incubated for 10 min on the pipetting station deck. The DNA-transfection reagent complexes were then added to plates containing cells. To facilitate the screen, 10 μL of DNA-transfection reagent complexes were added in duplicates to the top 4 and bottom 4 rows, resulting in two identical 48-well arrays per plate. Plates with transfected cells were incubated for 18–20 h at 37 °C/5% CO2. A screen of each tracer across the entire library using two different concentrations requires duplicate plates of transfected cells. Depending on the number of tracers being screened, transfections can be scaled up using the same ratios. The next day, for each tracer, four 20× screening solutions in tracer dilution buffer (Promega) were prepared: two duplicates at final concentration of 20 μM and two duplicates at a final concentration of 2 μM. A competing unmodified compound was added to one of each duplicate at a final concentration of 400 μM. The four resulting solutions were diluted 4-fold in Opti-MEM without serum or phenol red to generate 5× solutions (5 µM and 0.5 µM tracer +/− 100 μM competing compound). To screen the library, a BioTek MultiFlo FX liquid dispenser was used to dispense 22.5 µL of tracer solution to the top 4 rows and 22.5 µL tracer + competing compound solution to the 4 bottom rows. Plates were briefly mixed on an orbital shaker and incubated for 1.5 h at room temperature. […]
In general terms: Bioluminescence resonance energy transfer reports proximity on the nanometre scale.

Another assay deals with T2, NMUR1 (Homo sapiens, UniProt Q9HB89).
T2 construct: purchased Promega (in-house HiBiT-GPCR construct library, NanoBRET)
T2 sequence (Q9HB89 1-426): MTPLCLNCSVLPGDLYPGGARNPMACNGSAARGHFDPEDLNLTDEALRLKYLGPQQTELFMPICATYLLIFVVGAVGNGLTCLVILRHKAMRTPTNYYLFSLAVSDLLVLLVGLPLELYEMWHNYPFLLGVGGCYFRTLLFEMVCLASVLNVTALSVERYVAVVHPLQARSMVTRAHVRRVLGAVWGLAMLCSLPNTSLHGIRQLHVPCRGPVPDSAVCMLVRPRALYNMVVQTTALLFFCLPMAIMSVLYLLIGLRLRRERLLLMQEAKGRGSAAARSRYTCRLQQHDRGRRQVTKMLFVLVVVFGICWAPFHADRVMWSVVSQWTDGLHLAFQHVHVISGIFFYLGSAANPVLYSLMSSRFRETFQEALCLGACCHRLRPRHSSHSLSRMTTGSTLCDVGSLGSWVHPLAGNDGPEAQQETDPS
Put plainly: NanoBRET screen HiBiT-NMUR1 in HEK293. As to the method:
as §1, §2

The target of another assay is T3, LGR6 (Homo sapiens, UniProt Q9HBX8).
T3 construct: purchased Promega (in-house HiBiT-GPCR construct library, NanoBRET)
T3 sequence (Q9HBX8 25-967): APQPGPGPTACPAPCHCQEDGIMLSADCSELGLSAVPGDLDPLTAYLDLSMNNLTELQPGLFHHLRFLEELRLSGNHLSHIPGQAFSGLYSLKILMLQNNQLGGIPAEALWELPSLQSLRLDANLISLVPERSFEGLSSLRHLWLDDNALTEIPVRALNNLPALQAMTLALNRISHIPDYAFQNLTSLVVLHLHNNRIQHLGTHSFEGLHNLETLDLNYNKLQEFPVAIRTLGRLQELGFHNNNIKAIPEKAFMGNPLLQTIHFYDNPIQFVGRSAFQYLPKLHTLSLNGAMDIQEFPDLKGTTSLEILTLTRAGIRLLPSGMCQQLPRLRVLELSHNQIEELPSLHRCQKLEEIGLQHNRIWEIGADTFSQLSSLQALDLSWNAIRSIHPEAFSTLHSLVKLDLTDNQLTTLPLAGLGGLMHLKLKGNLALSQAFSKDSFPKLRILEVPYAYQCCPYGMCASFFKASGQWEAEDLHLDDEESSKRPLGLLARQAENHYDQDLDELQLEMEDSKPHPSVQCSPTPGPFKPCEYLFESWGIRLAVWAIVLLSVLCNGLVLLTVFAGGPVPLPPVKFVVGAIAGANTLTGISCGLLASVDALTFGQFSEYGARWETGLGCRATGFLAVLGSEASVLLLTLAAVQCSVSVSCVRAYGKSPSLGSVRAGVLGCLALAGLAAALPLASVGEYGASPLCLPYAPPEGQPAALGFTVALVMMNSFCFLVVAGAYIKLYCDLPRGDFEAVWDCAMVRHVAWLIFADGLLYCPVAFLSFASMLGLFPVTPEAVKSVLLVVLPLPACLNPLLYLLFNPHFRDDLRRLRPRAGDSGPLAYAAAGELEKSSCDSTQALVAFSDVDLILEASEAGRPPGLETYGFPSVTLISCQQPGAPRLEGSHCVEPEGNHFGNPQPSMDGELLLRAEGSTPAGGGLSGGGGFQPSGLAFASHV
Briefly: NanoBRET screen HiBiT-LGR6 in HEK293. As to the method:
as §1, §2

The mark [1] stands for this setting: tracer at 0.1μM, listed as amitriptyline-b-2-NB590.
[2] abbreviates: tracer at 1μM, listed as amitriptyline-b-2-NB590.

Structures are written as SMILES.

T1 sequence (Q9H461 28-694): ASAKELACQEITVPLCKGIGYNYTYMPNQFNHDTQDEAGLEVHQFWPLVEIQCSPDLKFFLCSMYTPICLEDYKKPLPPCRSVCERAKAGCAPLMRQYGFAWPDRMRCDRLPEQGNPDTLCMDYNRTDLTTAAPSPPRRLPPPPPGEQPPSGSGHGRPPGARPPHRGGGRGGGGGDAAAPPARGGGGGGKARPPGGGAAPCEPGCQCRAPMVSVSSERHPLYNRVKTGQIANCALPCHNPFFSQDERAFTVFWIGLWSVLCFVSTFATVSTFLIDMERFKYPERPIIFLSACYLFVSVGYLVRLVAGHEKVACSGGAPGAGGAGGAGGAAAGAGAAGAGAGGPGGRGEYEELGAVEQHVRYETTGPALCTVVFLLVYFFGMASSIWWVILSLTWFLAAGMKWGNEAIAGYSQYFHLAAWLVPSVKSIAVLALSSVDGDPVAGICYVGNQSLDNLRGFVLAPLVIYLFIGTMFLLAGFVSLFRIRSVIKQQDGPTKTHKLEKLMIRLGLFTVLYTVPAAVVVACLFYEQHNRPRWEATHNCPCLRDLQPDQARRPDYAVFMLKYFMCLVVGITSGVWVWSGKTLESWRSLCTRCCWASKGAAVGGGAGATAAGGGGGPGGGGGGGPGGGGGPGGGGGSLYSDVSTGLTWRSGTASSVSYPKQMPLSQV

`Cc1nc2n(c(=O)c1CCN1CCC(c3noc4cc(F)ccc34)CC1)CCCC2OC(=O)NCCOCCOCCOCCOCCNC(=O)CCc1ccc2n1[B-](F)(F)[N+]1=C(c3ccc[nH]3)C=CC1=C2` (stereo not drawn) [Risperidone-2-NB590]: the “NanoBRET Fold Response” value at FZD8 (FZD8, tracer 0.1μM) is listed as 1.02; on FZD8 (FZD8, tracer 1μM), 1.12; on NMUR1 (NMUR1, tracer 0.1μM), 1.04; at NMUR1 (NMUR1, tracer 1μM), 0.97; at LGR6 (LGR6, tracer 0.1μM) it was 1.04; on LGR6 (LGR6, tracer 1μM), 1.02.

Consider `O=C(CCOCCOCCOCCOCCNC(=O)CCc1ccc2n1[B-](F)(F)[N+]1=C(c3ccc[nH]3)C=CC1=C2)NCCCN1CCN(C2=Nc3cc(Cl)ccc3Nc3ccccc32)CC1` [Clozapine-a-2-NB590], for which the “NanoBRET Fold Response” value on FZD8 (FZD8, 0.1μM tracer) is recorded as 1.02; at FZD8 (FZD8, 1μM tracer), 1.00; at NMUR1 (NMUR1, 0.1μM tracer) it was 1.14; on NMUR1 (NMUR1, 1μM tracer), 1.16; on LGR6 (LGR6, 0.1μM tracer) it was 1.03; on LGR6 (LGR6, 1μM tracer), 0.66.

With `COc1ccc2[nH]c(-c3ccc(CNC(=O)CCOCCOCCOCCOCCNC(=O)CCc4ccc5n4[B-](F)(F)[N+]4=C(c6ccc[nH]6)C=CC4=C5)cc3)c(CCNC(C)=O)c2n1` [AzomelatoninICO9-2-NB590], the “NanoBRET Fold Response” value on FZD8 (0.1μM tracer) was determined as 0.91; at FZD8 (1μM tracer) it was 1.03; on NMUR1 (0.1μM tracer), 0.77; on NMUR1 (1μM tracer), 0.91; at LGR6 (0.1μM tracer), 0.62; at LGR6 (1μM tracer), 0.95.

Regarding `CN1CCN(C2=Nc3cc(Cl)ccc3Nc3ccc(CNC(=O)CCOCCOCCOCCOCCNC(=O)CCc4ccc5n4[B-](F)(F)[N+]4=C(c6ccc[nH]6)C=CC4=C5)cc32)CC1` [Clozapine-b-2-NB590], the “NanoBRET Fold Response” value at FZD8 (FZD8, 0.1μM tracer) turned out to be 1.00; on FZD8 (FZD8, 1μM tracer) it was 1.02; at NMUR1 (NMUR1, 0.1μM tracer), 0.98; on NMUR1 (NMUR1, 1μM tracer), 0.94; at LGR6 (LGR6, 0.1μM tracer) it was 1.31; on LGR6 (LGR6, 1μM tracer), 0.89.

Turning to `COc1ccccc1N1CCN(CCCCN2C(=O)c3ccc(CNC(=O)CCOCCNC(=O)c4ccc(CNC(=O)CCc5ccc6n5[B-](F)(F)[N+]5=C(c7ccc[nH]7)C=CC5=C6)cc4)cc3C2=O)CC1` [NAN-190-3-NB590], the “NanoBRET Fold Response” value on FZD8 (FZD8, tracer 0.1μM) amounted to 1.20; at FZD8 (FZD8, tracer 1μM) it was 0.87; at NMUR1 (NMUR1, tracer 0.1μM) it was 1.03; on NMUR1 (NMUR1, tracer 1μM), 0.96; on LGR6 (LGR6, tracer 0.1μM), 1.39; on LGR6 (LGR6, tracer 1μM), 0.60.

In the case of `N#CN=C(NCCCOc1cccc(CN2CCCCC2)c1)NCCNC(=O)CCOCCOCCOCCOCCNC(=O)CCc1ccc2n1[B-](F)(F)[N+]1=C(c3ccc[nH]3)C=CC1=C2` [Aminopotentidine-2-NB590], the “NanoBRET Fold Response” value at FZD8 (FZD8, tracer 0.1μM) was found to be 0.98; at FZD8 (FZD8, tracer 1μM), 1.01; on NMUR1 (NMUR1, tracer 0.1μM) it was 1.05; at NMUR1 (NMUR1, tracer 1μM), 0.98; on LGR6 (LGR6, tracer 0.1μM), 0.96; at LGR6 (LGR6, tracer 1μM) it was 0.88.

Turning to `CN(C)CCC=C1c2ccccc2CCc2ccc(C(=O)NCCNC(=O)CCOCCOCCOCCOCCNC(=O)CCc3ccc4n3[B-](F)(F)[N+]3=C(c5ccc[nH]5)C=CC3=C4)cc21` [Amitriptyline-b-2-NB590], the “NanoBRET Fold Response” value on FZD8 (tracer at 0.1μM) is listed as 1.03; on FZD8 (tracer at 1μM), 1.00; on NMUR1 (setting [1]), 1.14; at NMUR1 (setting [2]), 1.10; on LGR6 (setting [1]), 0.92; at LGR6 (setting [2]), 1.14.

As for `O=C(CCOCCOCCOCCOCCNC(=O)CCc1ccc2n1[B-](F)(F)[N+]1=C(c3ccc[nH]3)C=CC1=C2)NCCCN1CCN(C2=Nc3ccccc3Oc3ccc(Cl)cc32)CC1` [Loxapine-a-2-NB590], the “NanoBRET Fold Response” value stood at 0.95 at FZD8 (FZD8, tracer 0.1μM); 1.01 on FZD8 (FZD8, tracer 1μM); 1.02 on NMUR1 (NMUR1, tracer 0.1μM); 1.21 at NMUR1 (NMUR1, tracer 1μM); 0.91 at LGR6 (LGR6, tracer 0.1μM); 1.25 at LGR6 (LGR6, tracer 1μM).
